The source made the active and inactive calls. No cut-off for these calls is given here.
Assays:
P388 [1] = test: Antitumor activity against mouse P388 cells allografted in BDF1 mouse assessed as increase in survival time at 100 mg/kg administered 24 hrs post challenge relative to control; format: functional
Mus musculus [2] = test: Toxicity in mouse P388 cells allografted BDF1 mouse assessed as body weight difference at 100 mg/kg administered 24 hrs post challenge relative to control; format: organism-based; parameters: dose 100 mg/kg; conditions: in vivo
P388 [3] = test: Antitumor activity against mouse P388 cells allografted in BDF1 mouse assessed as mouse survival at 50 mg/kg administered 24 hrs post challenge relative to control; format: functional, organism-based; parameters: dose 50 mg/kg
Mus musculus [4] = test: Toxicity in mouse P388 cells allografted BDF1 mouse assessed as body weight difference at 25 mg/kg administered 24 hrs post challenge relative to control; format: organism-based; parameters: dose 25 mg/kg; conditions: in vivo
P388 [5] = test: Antitumor activity against mouse P388 cells allografted in BDF1 mouse assessed as mouse survival at 25 mg/kg administered 24 hrs post challenge relative to control; format: functional, organism-based; parameters: dose 25 mg/kg
P388 [6] = test: Antitumor activity against mouse P388 cells allografted in BDF1 mouse assessed as increase in survival time at 25 mg/kg administered 24 hrs post challenge relative to control; format: functional
Mus musculus [7] = test: Toxicity in mouse P388 cells allografted BDF1 mouse assessed as body weight difference at 50 mg/kg administered 24 hrs post challenge relative to control; format: organism-based; parameters: dose 50 mg/kg; conditions: in vivo
P388 [8] = test: Antitumor activity against mouse P388 cells allografted in BDF1 mouse assessed as mouse survival at 100 mg/kg administered 24 hrs post challenge relative to control; format: functional, organism-based; parameters: dose 100 mg/kg
P388 [9] = test: Antitumor activity against mouse P388 cells allografted in BDF1 mouse assessed as increase in survival time at 50 mg/kg administered 24 hrs post challenge relative to control; format: functional
P388 [10] = test: Antitumor activity against mouse P388 cells allografted in BDF1 mouse assessed as mouse survival at 6.25 mg/kg administered 24 hrs post challenge relative to control; format: functional, organism-based; parameters: dose 6.25 mg/kg
Mus musculus [11] = test: Toxicity in mouse P388 cells allografted BDF1 mouse assessed as body weight difference at 12.5 mg/kg administered 24 hrs post challenge relative to control; format: organism-based; parameters: dose 12.5 mg/kg; conditions: in vivo
P388 [12] = test: Antitumor activity against mouse P388 cells allografted in BDF1 mouse assessed as increase in survival time at 6.25 mg/kg administered 24 hrs post challenge relative to control; format: functional
P388 [13] = test: Antitumor activity against mouse P388 cells allografted in BDF1 mouse assessed as increase in survival time at 12.5 mg/kg administered 24 hrs post challenge relative to control; format: functional
P388 [14] = test: Antitumor activity against mouse P388 cells allografted in BDF1 mouse assessed as mouse survival at 12.5 mg/kg administered 24 hrs post challenge relative to control; format: functional, organism-based; parameters: dose 12.5 mg/kg
Mus musculus [15] = test: Toxicity in mouse P388 cells allografted BDF1 mouse assessed as body weight difference at 6.25 mg/kg administered 24 hrs post challenge relative to control; format: organism-based; parameters: dose 6.25 mg/kg; conditions: in vivo
P388 [16] = test: Antitumor activity against mouse P388 cells allografted in BDF1 mouse assessed as mouse survival at 3.13 mg/kg administered 24 hrs post challenge relative to control; format: functional, organism-based; parameters: dose 3.13 mg/kg
P388 [17] = test: Antitumor activity against mouse P388 cells allografted in BDF1 mouse assessed as increase in survival time at 3.13 mg/kg administered 24 hrs post challenge relative to control; format: functional
Mus musculus [18] = test: Toxicity in mouse P388 cells allografted BDF1 mouse assessed as body weight difference at 3.13 mg/kg administered 24 hrs post challenge relative to control; format: organism-based; parameters: dose 3.13 mg/kg; conditions: in vivo
Mus musculus [19] = test: Toxicity in mouse P388 cells allografted BDF1 mouse assessed as body weight difference at 4 mg/kg administered 24 hrs post challenge relative to control; format: organism-based; parameters: dose 4 mg/kg; conditions: in vivo
L1210 [20] = test: Antitumor activity against mouse L1210 cells allografted in BDF1 mouse assessed as increase in survival time at 25 mg/kg administered 24 hrs post challenge relative to control; format: functional
P388 [21] = test: Antitumor activity against mouse P388 cells allografted in BDF1 mouse assessed as mouse survival at 32 mg/kg administered 24 hrs post challenge relative to control; format: functional, organism-based; parameters: dose 32 mg/kg
Mus musculus [22] = test: Toxicity in mouse P388 cells allografted BDF1 mouse assessed as body weight difference at 8 mg/kg administered 24 hrs post challenge relative to control; format: organism-based; parameters: dose 8 mg/kg; conditions: in vivo
P388 [23] = test: Antitumor activity against mouse P388 cells allografted in BDF1 mouse assessed as mouse survival at 4 mg/kg administered 24 hrs post challenge relative to control; format: functional, organism-based; parameters: dose 4 mg/kg
P388 [24] = test: Antitumor activity against mouse P388 cells allografted in BDF1 mouse assessed as mouse survival at 16 mg/kg administered 24 hrs post challenge relative to control; format: functional, organism-based; parameters: dose 16 mg/kg
P388 [25] = test: Antitumor activity against mouse P388 cells allografted in BDF1 mouse assessed as increase in survival time at 32 mg/kg administered 24 hrs post challenge relative to control; format: functional
L1210 [26] = test: Antitumor activity against mouse L1210 cells allografted in BDF1 mouse assessed as increase in survival time at 12.5 mg/kg administered 24 hrs post challenge relative to control; format: functional
Mus musculus [27] = test: Toxicity in mouse P388 cells allografted BDF1 mouse assessed as body weight difference at 16 mg/kg administered 24 hrs post challenge relative to control; format: organism-based; parameters: dose 16 mg/kg; conditions: in vivo
P388 [28] = test: Antitumor activity against mouse P388 cells allografted in BDF1 mouse assessed as increase in survival time at 8 mg/kg administered 24 hrs post challenge relative to control; format: functional
L1210 [29] = test: Antitumor activity against mouse L1210 cells allografted in BDF1 mouse assessed as increase in survival time at 6.25 mg/kg administered 24 hrs post challenge relative to control; format: functional
Mus musculus [30] = test: Toxicity in mouse P388 cells allografted BDF1 mouse assessed as body weight difference at 32 mg/kg administered 24 hrs post challenge relative to control; format: organism-based; parameters: dose 32 mg/kg; conditions: in vivo
P388 [31] = test: Antitumor activity against mouse P388 cells allografted in BDF1 mouse assessed as mouse survival at 8 mg/kg administered 24 hrs post challenge relative to control; format: functional, organism-based; parameters: dose 8 mg/kg
P388 [32] = test: Antitumor activity against mouse P388 cells allografted in BDF1 mouse assessed as increase in survival time at 16 mg/kg administered 24 hrs post challenge relative to control; format: functional
P388 [33] = test: Antitumor activity against mouse P388 cells allografted in BDF1 mouse assessed as increase in survival time at 4 mg/kg administered 24 hrs post challenge relative to control; format: functional

SMILES	T/C (P388 [1]) [%]	Activity (Mus musculus [2]) [g]	Activity (P388 [3])	Activity (Mus musculus [4]) [g]	Activity (P388 [5])	T/C (P388 [6]) [%]	Activity (Mus musculus [7]) [g]	T/C (P388 [9]) [%]	further results
O=C1c2ccccc2C(=O)c2c(NCCCCCO)ccc(NCCCCCO)c21	88	-4	Active	-1.4	Active	88	-1.5	78	Activity (P388 [8]): Active
O=C1c2ccccc2C(=O)c2c(NCCNCCNCCO)ccc(NCCNCCNCCO)c21	120	-2.6	Active	-1.6	Active	110	-1.3	112	
O=C1c2ccccc2C(=O)c2c(NCCN3CCCCC3)ccc(NCCN3CCCCC3)c21	128	-4.5	Active	-3.6	Active	104	-2.9	110	Activity (P388 [8]): Active
O=C1c2ccccc2C(=O)c2c(NCCN3CCNCC3)ccc(NCCN3CCNCC3)c21				-1	Active	137	-2.7	134	Activity (P388 [10]): Active; Activity (Mus musculus [11]): -1.1 g; T/C (P388 [12]): 125%; T/C (P388 [13]): 117%; Activity (P388 [14]): Active; Activity (Mus musculus [15]): -0.4 g
O=C1c2ccccc2C(=O)c2c3c(cc(NCCNCCO)c21)N(CCO)CCN3	101	-3.8		-3.2	Active	155	-3.5	163	
CCNCCNc1ccc(NCCNCC)c2c1C(=O)c1ccccc1C2=O				-4.8		132			Activity (P388 [10]): Active; Activity (Mus musculus [11]): -2.8 g; T/C (P388 [12]): 149%; T/C (P388 [13]): 168%; Activity (P388 [16]): Active; T/C (P388 [17]): 142%; Activity (Mus musculus [18]): -2.3 g; Activity (Mus musculus [15]): -2.2 g
O=C1c2ccccc2C(=O)c2c(NCCNCCO)ccc(NCCNCCO)c21 [AMETANTRONE]									Activity (Mus musculus [19]): 0 g; T/C (L1210 [20]): 272%; Activity (P388 [21]): Active; Activity (Mus musculus [22]): -2 g; Activity (P388 [23]): Active; Activity (P388 [24]): Active; T/C (P388 [25]): 81%; T/C (L1210 [26]): 227%; Activity (Mus musculus [27]): -3.9 g; T/C (P388 [28]): 276%; T/C (L1210 [29]): 156%; Activity (Mus musculus [30]): -5.9 g; Activity (P388 [31]): Active; T/C (P388 [32]): 275%; T/C (P388 [33]): 275%

Reference: ChEMBL document CHEMBL3244338, “Antineoplastic agents. Structure-activity relationship study of bis(substituted aminoalkylamino)anthraquinones” (J Med Chem, 1978)
